Measured values taken from US7452869B2, “NIP3 family of proteins” (University of Manitoba, priority 2000, dated 2008).

Assays:
MCF-7 cells = test: cytochrome c release by indirect immunofluorescence, MCF-7; assay type: cell-based
Procedure: (§1) Mitochondria were isolated from CaP04-transfected 293T cells using 70 strokes (tight pestle) in a 1-ml Dounce homogenizer (Wheaton) in […] of CFS buffer as previously described (Thornberry, N. A., et al., 1998). Mitochondria were resuspended in H buffer (Thornberry, N. A., et al., 1998). Aliquots of […] of protein were analyzed on Laemmli SDS-15% PAGE gels and immunoblotted with anticytochrome c monoclonal antibody. Equal loading was ensured by probing the same blot with monoclonal antiactin. Results were visualized with enhanced chemiluminescence. Cytochrome c release was also determined via indirect immunofluorescence of transfected MCF-7 and 293T cells. Briefly, cells grown on coverslips were costained with Cy3-conjugated mouse anti-cytochrome c monoclonal antibody and an appropriate tag (HA for BNIP3 and FLAG for tBID), which was visualized with FITC-conjugated goat anti-rabbit IgG. Cells were also stained with Hoechst dye to determine apoptotic nuclear morphology. No fewer than 200 cells were scored for each sample. Fluorescence was visualized and captured using a Zeiss axiophot microscope equipped with a cooled charge-coupled device camera.

endogenous BNIP3 = biological target: T1, endogenous BNIP3 (Rattus norvegicus, UniProt A0ACM8Q210); test: alkali extraction of mitochondria of hypoxic ventricular myocytes, BNIP3 western blot; assay type: cell-based
T1 construct: endogenous in cells; host or cells: neonatal rat ventricular myocytes, with or without adenovirus AdBNIP3ΔTM
Text: For detection of BNIP3 protein, total cardiac cell lysate was subjected to Western blot analysis using a murine antibody directed toward BNIP3 (Vande et al., 2000). To isolate mitochondria from ventricular myocytes, cells were washed in HIM buffer (200 mmol/L mannitol, 70 mmol/L sucrose, 10 mmol/L HEPES-KOH, 1 mmol/L EGTA, pH 7.5). The crude cell pellet was disrupted and resuspended in HIM buffer containing 2.0% wt/vol bovine serum albumin. The homogenate was ultracentrifuged to obtain the mitochondrial fraction and resuspended in 200 mmol/L sucrose, 10 mmol/L HEPES-KOH, 1 mmol/L ATP, 5 mmol/L sodium succinate, 0.08 mmol/L ADP, and 2 mmol/L K2HPO4. To assess whether BNIP3 integrates into mitochondrial membranes during hypoxia, mitochondria were subjected to alkali extraction using 0.01 mol/L Na2CO3 (pH 11.5); this will dissociate and solubilize proteins that are not membrane integrated (Vande et al, 2000; Goping et al, 1998). Antibodies directed toward the following Bcl-2 family members were obtained from respective suppliers: Bad (Transduction Laboratories Inc), Bax (Santa Cruz Inc), and Bak and Bcl-2 (Pharmingen). Bound proteins were visualized using enhanced chemiluminescence (ECL) reagents (Amersham Pharmacia Inc).

ventricular myocytes = test: cell viability of ventricular myocytes, calcein acetoxymethyl ester / ethidium homodimer-1; assay type: cell-based; settings: cells expressing BNIP3ΔTM
Procedure: Ventricular myocytes were isolated from 1- to 2-day-old Sprague-Dawley rats (University of Manitoba, Winnipeg, Canada) and submitted to primary culture as reported (Kirshenbaum and Schneider, 1995). Myocytes were subjected to hypoxia for 24 hours in an air-tight chamber continually gassed with 95% N2-5% CO2, as previously reported (Moissac et al., 2000; Long et al., 1997; Tanaka et al., 1994). Adult rat hearts (n=3) were excised from adult rats (250 to 300 g) and subjected to global hypoxia for 1 hour on a modified Langendorff perfusion system with buffer continually gassed with 95% N2-5% CO2, as previously reported (Kirshenbaum, 1993). Heart failure was induced in rats by surgical ligation of the left anterior descending coronary artery, as previously reported (Dixon et al., 1992). Non-failing sham control hearts and those with heart failure were excised from animals 8 weeks after myocardial infarction. Hearts (n=3) were dissected to remove the infarcted scar tissue, and the left ventricular free wall was homogenized and analyzed by Western blot for BNIP3 expression. Animals were handled according to guidelines established by the University of Manitoba and Canadian Council on Animal Care.
The cDNAs for BNIP3 full-length (BNIP3) and carboxyl terminal transmembrane domain deletion mutant (BNIP3ΔTM) have been described previously (Vande et al., 2000). Recombinant adenoviruses encoding the full-length BNIP3 or transmembrane deletion mutant are designated AdBNIP3 or AdBNIP3ΔTM, respectively, and generated as reported previously (Kirshenbaum et al., 1993).
Cell viability was determined using the vital dyes 2 μmol/L calcein acetoxymethyl ester (green) to determine the number of living cells and 2 μmol/L ethidium homodimer-1 (red) (Molecular Probes) to identify the number of dead cells (Kirshenbaum and Schneider, 1995). The number of green cells versus red cells was used to determine changes in cell viability (Moissac et al., 2000). Cells were analyzed from at least n=3 independent myocyte isolations counting ≧200 cells for each condition tested. Data are expressed as mean±SE percent reduction from control.

293T cells = test: cytochrome c release by indirect immunofluorescence, 293T; assay type: cell-based
Procedure: as §1

BNIP3 = biological target: T2, BNIP3 (Homo sapiens, UniProt Q12983); test: BNIP3 induced cell death by exclusion of propidium iodide, co-transfection of BNIP3 DTM plasmid (FIG. 13); assay type: cell-based; settings: 1.0 to 1.0 μg plasmid ratio BNIP3 DTM to BNIP3
T2 construct: a pcDNA3-BNIP3 plasmid encoding the full length of BNIP3; expressed in transfected cells
Procedure: Increasing concentrations of BNIP3 DTM plasmid (0.25 to 1.0 μg) were added to a constant amount of BNIP3 (1.0 μg). Cell death was determined by exclusion of propidium iodide. […] The BNIP3 DTM mutant contains amino acids 1-163, which is a deletion of the C-terminus of the protein that contains the transmembrane domain.

PT pore = test: mitochondrial Dcm (DiOC6), ROS production (HE) and PI staining by flow cytometry in BNIP3-transfected 293T cells; assay type: cell-based; settings: 293T cells
Procedure: Changes in mitochondrial function were determined by incubating 10 6 293T cells, transiently transfected via the CaP04 method, with either 1 mM JC-1, 40 nM DiOC6, or 2 mM dihydroethidium (HE) (all from Molecular Probes, Inc.) for 30 minutes at 37° C. in Hanks' balanced salt solution (Gibco-BRL). Cells were scored using a FACScalibur flow cytometer (Becton-Dickinson, San Jose, Calif.), and data were analyzed on Celiquest software, version 3.1 (Becton-Dickinson). Controls were performed in the presence or absence of […] mClCCP (Sigma) or an excess of 30% H2 02. For inhibition experiments, cyclosporin A (Sigma) or bongkrekic acid (a gift from J. A. Duine, Delft University, Delft, The Netherlands) was added 2 hours prior to transfection. All cells were harvested 8 hours after transfection and stained with 40 nM DiOC6, 2 mM HE, or 1 mg of propidium iodide (PI) (Sigma) per ml. In all cases, samples were gated to exclude cellular debris.

[1] = test system: primary hippocampal neurons; test: primary hippocampal neurons transfected with BNIP3 plasmids, DNA condensation and survival; assay type: cell-based, rat; settings: for BNIP3-positive neurons showing DNA condensation / DNA damage: transiently transfected hippocampal neurons
Procedure: Transfection of cells was performed on day four in culture with LipofectAMINE 2000 […] according to manufacturer's protocol. Cells were transfected with a pcDNA3-BNIP3 plasmid encoding the full length of BNIP3 and a pcDNA3-BNIP3-163 plasmid that encodes a truncated form (the first 163 amino acids) of BNIP3 that lacks the functional transmembrane domain. Cells were used after 9 days in culture for excitotoxicity experiments. Neuronal cell death was assessed using trypan blue exclusion, morphological changes, and Hoescht 33342 staining. Morphological characteristics were examined on a Nikon Eclipse TE200 microscope and fluorescence was examined on a Zeiss Axioskop 2.
In vitro cell death was estimated using trypan blue exclusion. Cells were incubated in 0.4% trypan blue solution for 30 minutes and then counted on a bright-field microscope. Nonviable cells were distinguished by their dark blue staining. To examine nuclear morphology, nuclear DNA was stained with Hoescht 33342. DNA fragmentation was detected by TUNEL using an in situ cell death detection kit with fluorescein. Statistical analyses were by ANOVA with Tukey's post-test.

caspase 3-like proteases = test: caspase activation, colorigenic cleavage of Ac-DEVD-pNA by lysates of transfected 293T cells; assay type: biochemical; settings: 293T lysates harvested 1 to 36 hours posttransfection, versus untransfected controls
Procedure: Lysates were collected from 293T cells, transiently transfected via the CaP04 method (Ray, R., et al., 1999), at the indicated times. Aliquots of these lysates were run under Laemmli sodium dodecyl sulfate-polyacrylamide gel electrophoresis (SDS-PAGE) conditions and immunoblotted with mouse monoclonal anti-PARP. Results were visualized with an enhanced chemiluminescence system (Amersham Pharmacia Biotech, Amersham, U. K.). Transfected 293T cells were also assayed for caspase cleavage via colorigenic cleavage of the peptide Ac-DEVD-pNA (Biomol, Plymouth Meeting, Pa.), according to the conditions outlined by Quignon et al. (Scaffidi, C., et al., 1998), using 100 mM peptide. Where appropriate, samples were preincubated with 500 nM Ac-DEVD-fmk for 30 minutes at room temperature. Data were acquired on a Multiskan MCC/340 (Titertek) plate reader at 405 nm.

T2 sequence (Q12983 whole entry): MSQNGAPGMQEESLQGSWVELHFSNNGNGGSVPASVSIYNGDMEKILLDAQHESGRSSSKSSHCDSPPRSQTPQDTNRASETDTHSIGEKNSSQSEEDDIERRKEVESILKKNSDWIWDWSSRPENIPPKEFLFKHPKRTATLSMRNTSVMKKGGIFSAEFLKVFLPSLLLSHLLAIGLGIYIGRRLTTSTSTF
T1 sequence (A0ACM8Q210 1-187): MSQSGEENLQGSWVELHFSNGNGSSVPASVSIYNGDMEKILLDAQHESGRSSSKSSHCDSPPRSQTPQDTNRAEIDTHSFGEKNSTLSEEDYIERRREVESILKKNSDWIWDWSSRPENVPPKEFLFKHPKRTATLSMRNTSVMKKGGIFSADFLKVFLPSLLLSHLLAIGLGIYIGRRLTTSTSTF

For “BNIP3ΔTM: carboxyl terminal transmembrane deletion mutant of BNIP3, deletion of amino acids 164 to 194 (amino acids 1-163)”, which “cytochrome c release (in words)” value (MCF-7 cells) is on record?
Its value is “no significant cytochrome c release”.

What about the “hypoxia-induced mitochondrial integration of the endogenous BNIP3 protein” value (endogenous BNIP3) of the same substance?
The value was “suppressed”.

And the “toxicity to myocytes (viability versus control cells)” value (ventricular myocytes)?
Its value is “not toxic”.

And the “hypoxia-induced cell death of ventricular myocytes” value (ventricular myocytes; hypoxia 24 hours)?
Its value is “markedly blunted”.

What about the “cytochrome c release (in words)” value (293T cells) of the same substance?
The value was “only very low levels”.

What about the “cell death induced by BNIP3 (propidium iodide exclusion)” value (BNIP3) of the same substance?
Its value is “background levels”.

And the “DiOC6 / HE staining compared to untreated controls” value (PT pore)?
The value was “not affected”.

And the “neurons surviving glutamate toxicity” value ([1]; glutamate 100 μM at day 9 in culture, 5 days after transfection)?
The value was 68%.

And the “BNIP3-positive neurons showing DNA condensation / DNA damage” value ([1]; listed as BNIP^3-163)?
Its value is 17%.

What about the “BNIP3-positive neurons showing DNA condensation / DNA damage” value ([1]; listed as pcDNA3-BNIP3^3-163) of the same substance?
The value was 24%.

And the “increase in Ac-DEVD-pNA substrate cleavage after transfection” value (caspase 3-like proteases)?
Its value is “only marginal increases”.
